Assay results as given in paper PMC5218480 (PLoS ONE, 2017).

Tested on: MV-4-11 cells
Experiment: Gene expression microarray analysis (Affymetrix PrimeView) and GSEA
Format: cell-based, human
Set-up: RFU PODN (11730768_x_at) / Fold change /veh PODN (11730768_x_at) / RFU LINC00158 (11744669_a_at) / Fold change /veh LINC00158 (11744669_a_at) / RFU DUSP10 (11751237_a_at) / Fold change /veh DUSP10 (11751237_a_at) / RFU ID3 (11757404_x_at) / Fold change /veh ID3 (11757404_x_at) / RFU PLEKHG5 (11737974_s_at) / Fold change /veh PLEKHG5 (11737974_s_at) / RFU LRRC4B (11730491_at) / Fold change /veh LRRC4B (11730491_at) / RFU GIMAP4 (11747438_a_at) / Fold change /veh GIMAP4 (11747438_a_at) / RFU KRT8 (11758183_x_at) / Fold change /veh KRT8 (11758183_x_at) / RFU CNN1 (11734310_a_at) / Fold change /veh CNN1 (11734310_a_at) / RFU VPS37D (11726825_at) / Fold change /veh VPS37D (11726825_at) / RFU C10orf10 (11716522_x_at) / Fold change /veh C10orf10 (11716522_x_at) / RFU KIR2DL2 /// KIR2DL4 /// KIR2DL5A /// KIR2DL5B /// KIR2DS1 /// KIR2DS2 /// KIR2DS3 /// KIR2DS4 /// KIR3DL3 /// KIR3DL3 /// KIR3DS1 (11738374_at) / Fold change /veh KIR2DL2 /// KIR2DL4 /// KIR2DL5A /// KIR2DL5B /// KIR2DS1 /// KIR2DS2 /// KIR2DS3 /// KIR2DS4 /// KIR3DL3 /// KIR3DL3 /// KIR3DS1 (11738374_at) / RFU C1QL1 (11718748_at) / Fold change /veh C1QL1 (11718748_at) / RFU TMPRSS4 (11747572_a_at) / Fold change /veh TMPRSS4 (11747572_a_at) / RFU HAMP (11756126_x_at) / Fold change /veh HAMP (11756126_x_at) / RFU RNFT2 (11725882_a_at) / Fold change /veh RNFT2 (11725882_a_at) / RFU NR4A2 (11747474_a_at) / Fold change /veh NR4A2 (11747474_a_at) / RFU ABCC12 (11746883_a_at) / Fold change /veh ABCC12 (11746883_a_at) / RFU TMEM136 (11760407_x_at) / Fold change /veh TMEM136 (11760407_x_at) / RFU CLDN22 /// WWC2 (11732394_at) / Fold change /veh CLDN22 /// WWC2 (11732394_at) / RFU HLA-DPB1 (11760878_x_at) / Fold change /veh HLA-DPB1 (11760878_x_at) / RFU SPINT1 (11716480_a_at) / Fold change /veh SPINT1 (11716480_a_at) / RFU GAP43 (11754022_s_at) / Fold change /veh GAP43 (11754022_s_at) / RFU A4GNT (11735810_at) / Fold change /veh A4GNT (11735810_at) / RFU PRB3 (11715151_x_at) / Fold change /veh PRB3 (11715151_x_at) / RFU TUBB4B (11761932_at) / Fold change /veh TUBB4B (11761932_at) / RFU CAPN14 (11732068_a_at) / Fold change /veh CAPN14 (11732068_a_at) / RFU TMCC2 (11721928_a_at) / Fold change /veh TMCC2 (11721928_a_at) / RFU IRGQ (11745062_a_at) / Fold change /veh IRGQ (11745062_a_at) / RFU FAM174B (11720279_a_at) / Fold change /veh FAM174B (11720279_a_at) / RFU TMPRSS4 (11748680_a_at) / Fold change /veh TMPRSS4 (11748680_a_at) / RFU FAM212B (11763350_a_at) / Fold change /veh FAM212B (11763350_a_at) / RFU PLEKHG5 (11743358_a_at) / Fold change /veh PLEKHG5 (11743358_a_at) / RFU ZSCAN30 (11745921_a_at) / Fold change /veh ZSCAN30 (11745921_a_at) / RFU CMKLR1 (11741424_a_at) / Fold change /veh CMKLR1 (11741424_a_at) / RFU LOC101060620 /// MAPK8IP1 (11723275_at) / Fold change /veh LOC101060620 /// MAPK8IP1 (11723275_at) / RFU SPTSSB (11747773_x_at) / Fold change /veh SPTSSB (11747773_x_at) / RFU PRSS12 (11739890_at) / Fold change /veh PRSS12 (11739890_at) / RFU BIN1 (11741810_x_at) / Fold change /veh BIN1 (11741810_x_at) / RFU WNT11 (11732464_a_at) / Fold change /veh WNT11 (11732464_a_at) / RFU C10orf10 (11716521_a_at) / Fold change /veh C10orf10 (11716521_a_at) / RFU C5orf56 (11738089_at) / Fold change /veh C5orf56 (11738089_at) / RFU CYB561 (11721691_x_at) / Fold change /veh CYB561 (11721691_x_at) / RFU ANKRD19P (11752326_a_at) / Fold change /veh ANKRD19P (11752326_a_at) / RFU OR2T12 /// OR2T33 /// OR2T8 (11738714_s_at) / Fold change /veh OR2T12 /// OR2T33 /// OR2T8 (11738714_s_at) / RFU VCAN (11748164_a_at) / Fold change /veh VCAN (11748164_a_at) / RFU JSRP1 (11732532_at) / Fold change /veh JSRP1 (11732532_at) / RFU KRTAP10-11 (11738290_x_at) / Fold change /veh KRTAP10-11 (11738290_x_at) / RFU MYO3A (11730013_a_at) / Fold change /veh MYO3A (11730013_a_at) / RFU EBF3 (11725865_a_at) / Fold change /veh EBF3 (11725865_a_at) / RFU CAMK2N1 (11719241_x_at) / Fold change /veh CAMK2N1 (11719241_x_at) / RFU C5orf56 (11738088_a_at) / Fold change /veh C5orf56 (11738088_a_at) / RFU OLFML3 (11715873_a_at) / Fold change /veh OLFML3 (11715873_a_at) / RFU LOC100653217 /// NTM (11731650_a_at) / Fold change /veh LOC100653217 /// NTM (11731650_a_at) / RFU MAPK11 (11762145_a_at) / Fold change /veh MAPK11 (11762145_a_at) / RFU FIZ1 (11724087_x_at) / Fold change /veh FIZ1 (11724087_x_at) / RFU OASL (11726364_x_at) / Fold change /veh OASL (11726364_x_at) / RFU SOX15 (11748057_x_at) / Fold change /veh SOX15 (11748057_x_at) / RFU CD79A (11719716_a_at) / Fold change /veh CD79A (11719716_a_at) / RFU HIST1H1D (11736915_at) / Fold change /veh HIST1H1D (11736915_at) / RFU CASKIN2 (11723855_a_at) / Fold change /veh CASKIN2 (11723855_a_at) / RFU LOC730098 (11760151_x_at) / Fold change /veh LOC730098 (11760151_x_at) / RFU OR4N2 (11742367_at) / Fold change /veh OR4N2 (11742367_at) / RFU PRRT2 (11749266_a_at) / Fold change /veh PRRT2 (11749266_a_at) / RFU SNX32 (11753110_a_at) / Fold change /veh SNX32 (11753110_a_at) / RFU CDHR5 (11726645_a_at) / Fold change /veh CDHR5 (11726645_a_at) / RFU RCAN1 (11760418_a_at) / Fold change /veh RCAN1 (11760418_a_at) / RFU FAM167A (11723789_a_at) / Fold change /veh FAM167A (11723789_a_at) / RFU FAM26E (11764081_at) / Fold change /veh FAM26E (11764081_at) / RFU ISYNA1 (11749810_s_at) / Fold change /veh ISYNA1 (11749810_s_at) / RFU ACY1 (11761880_at) / Fold change /veh ACY1 (11761880_at) / RFU 11764098_at / Fold change /veh 11764098_at / RFU SAMD14 (11745864_x_at) / Fold change /veh SAMD14 (11745864_x_at) / RFU NPB (11741838_a_at) / Fold change /veh NPB (11741838_a_at) / RFU TMPRSS6 (11731388_a_at) / Fold change /veh TMPRSS6 (11731388_a_at) / RFU KRTAP10-2 (11738614_at) / Fold change /veh KRTAP10-2 (11738614_at) / RFU ARHGAP8 /// PRR5-ARHGAP8 (11727945_x_at) / Fold change /veh ARHGAP8 /// PRR5-ARHGAP8 (11727945_x_at) / RFU KRTAP5-7 /// NADSYN1 (11734609_at) / Fold change /veh KRTAP5-7 /// NADSYN1 (11734609_at) / RFU RASL12 (11751679_a_at) / Fold change /veh RASL12 (11751679_a_at) / RFU CDKN2B (11736163_a_at) / Fold change /veh CDKN2B (11736163_a_at) / RFU PRF1 (11729649_at) / Fold change /veh PRF1 (11729649_at) / RFU, ZNF638 /// ZNF638-IT1 / Fold change vs veh, ZNF638 /// ZNF638-IT1 / RFU, PANK3 / Fold change vs veh, PANK3 / RFU, SH3YL1 / Fold change vs veh, SH3YL1 / RFU, ZEB2 / Fold change vs veh, ZEB2 / RFU, NRIP1 / Fold change vs veh, NRIP1 / RFU, PTTG1IP / Fold change vs veh, PTTG1IP / RFU, CAPN2 / Fold change vs veh, CAPN2 / RFU, MED14 / Fold change vs veh, MED14 / RFU, SNORA58 / Fold change vs veh, SNORA58 / RFU, C1orf63 / Fold change vs veh, C1orf63 / RFU, LRRFIP1 / Fold change vs veh, LRRFIP1 / RFU, NDUFAF7 / Fold change vs veh, NDUFAF7 / RFU, SLC12A2 / Fold change vs veh, SLC12A2 / RFU, IBTK / Fold change vs veh, IBTK / RFU, ESF1 / Fold change vs veh, ESF1 / Fold change vs veh, TMEM50B / RFU, TAOK1 / Fold change vs veh, TAOK1 / RFU, ACBD3 / Fold change vs veh, ACBD3 / RFU, TMA16 / Fold change vs veh, TMA16 / RFU, RWDD3 / Fold change vs veh, RWDD3 / RFU, BCAT1 / Fold change vs veh, BCAT1 / RFU, EDEM3 / Fold change vs veh, EDEM3 / RFU, TMEM33 / Fold change vs veh, TMEM33 / RFU, WDR75 / Fold change vs veh, WDR75 / RFU, AHCTF1 / Fold change vs veh, AHCTF1 / RFU, TFRC / Fold change vs veh, TFRC / RFU, ZDHHC17 / Fold change vs veh, ZDHHC17 / RFU, NOM1 / Fold change vs veh, NOM1 / RFU, ARL8B / Fold change vs veh, ARL8B / RFU, ZBTB11 / Fold change vs veh, ZBTB11 / RFU, TAMM41 / Fold change vs veh, TAMM41 / RFU, KIAA1704 /// LOC100996395 / Fold change vs veh, KIAA1704 /// LOC100996395 / RFU, ING1 / Fold change vs veh, ING1 / RFU, TRMT61B / Fold change vs veh, TRMT61B / RFU, FUBP3 / Fold change vs veh, FUBP3 / RFU, TP53 / Fold change vs veh, TP53 / RFU, TNKS2 / Fold change vs veh, TNKS2 / RFU, ZFP14 / Fold change vs veh, ZFP14 / RFU, ACTR2 / Fold change vs veh, ACTR2 / RFU, PPP3R1 / Fold change vs veh, PPP3R1 / RFU, PIK3R1 / Fold change vs veh, PIK3R1 / RFU, HNRNPA1 / Fold change vs veh, HNRNPA1 / RFU, RNF170 / Fold change vs veh, RNF170 / RFU, ZNF28 / Fold change vs veh, ZNF28 / RFU, RNGTT / Fold change vs veh, RNGTT / RFU, OGT / Fold change vs veh, OGT / RFU, BRD1 / Fold change vs veh, BRD1 / RFU, MARS / Fold change vs veh, MARS / RFU, ZNF655 / Fold change vs veh, ZNF655 / RFU, FAHD1 / Fold change vs veh, FAHD1 / RFU, BDP1 / Fold change vs veh, BDP1 / RFU, LRRCC1 / Fold change vs veh, LRRCC1 / RFU, ARID1A / Fold change vs veh, ARID1A / RFU, ZNF146 / Fold change vs veh, ZNF146 / RFU, ZNF330 / Fold change vs veh, ZNF330 / RFU, GPN3 / Fold change vs veh, GPN3 / RFU, C9orf123 / Fold change vs veh, C9orf123 / RFU, N4BP2L2 / Fold change vs veh, N4BP2L2 / RFU, ARFIP1 / Fold change vs veh, ARFIP1 / RFU, FAM179B / Fold change vs veh, FAM179B / RFU, BCL10 / Fold change vs veh, BCL10 / RFU, UHRF1BP1L / Fold change vs veh, UHRF1BP1L / RFU, BET1 / Fold change vs veh, BET1 / RFU, CNOT2 / Fold change vs veh, CNOT2 / RFU, ZNF268 / Fold change vs veh, ZNF268 / Fold change vs veh, ZNF507 / RFU, DGCR2 / Fold change vs veh, DGCR2 / RFU, WDSUB1 / Fold change vs veh, WDSUB1 / Fold change vs veh, HSP90B1 /// MIR3652 / RFU, ADSS / Fold change vs veh, ADSS / RFU, GK / Fold change vs veh, GK / RFU, ZNF148 / Fold change vs veh, ZNF148 / RFU, TAF9 / Fold change vs veh, TAF9 / RFU, SLC1A5 / Fold change vs veh, SLC1A5 / RFU, SLMO2 / Fold change vs veh, SLMO2 / RFU, ABCC4 / Fold change vs veh, ABCC4 / RFU, LOC101060439 /// RAP1B / Fold change vs veh, LOC101060439 /// RAP1B / RFU, RFX7 / Fold change vs veh, RFX7 / RFU, GTPBP10 / Fold change vs veh, GTPBP10 / RFU, CNEP1R1 / Fold change vs veh, CNEP1R1 / RFU, BIVM-ERCC5 /// ERCC5 / Fold change vs veh, BIVM-ERCC5 /// ERCC5 / RFU, ILF3 / Fold change vs veh, ILF3 / RFU 11762660_at / Fold change /veh 11762660_at / RFU VCAN (11757783_s_at) / Fold change /veh VCAN (11757783_s_at) / RFU DDX43 (11728927_at) / Fold change /veh DDX43 (11728927_at) / RFU KRT8 (11758188_x_at) / Fold change /veh KRT8 (11758188_x_at) / RFU NKD1 (11759106_at) / Fold change /veh NKD1 (11759106_at) / RFU SRD5A1 (11742802_a_at) / Fold change /veh SRD5A1 (11742802_a_at) / RFU TPSAB1 /// TPSB2 (11721975_s_at) / Fold change /veh TPSAB1 /// TPSB2 (11721975_s_at) / RFU GSTM3 (11746129_a_at) / Fold change /veh GSTM3 (11746129_a_at) / RFU IL23R (11737362_x_at) / Fold change /veh IL23R (11737362_x_at) / RFU TMEM51 (11727254_a_at) / Fold change /veh TMEM51 (11727254_a_at) / RFU PIWIL2 (11732686_x_at) / Fold change /veh PIWIL2 (11732686_x_at) / RFU ORM1 (11744905_x_at) / Fold change /veh ORM1 (11744905_x_at) / RFU CCDC152 (11743942_at) / Fold change /veh CCDC152 (11743942_at) / RFU ECM1 (11717891_a_at) / Fold change /veh ECM1 (11717891_a_at) / RFU IL23R (11748794_a_at) / Fold change /veh IL23R (11748794_a_at) / RFU TNFAIP8L3 (11732012_x_at) / Fold change /veh TNFAIP8L3 (11732012_x_at) / RFU MBOAT4 (11741988_at) / Fold change /veh MBOAT4 (11741988_at) / RFU 11764193_at / Fold change /veh 11764193_at / RFU TMEM53 (11763286_at) / Fold change /veh TMEM53 (11763286_at) / RFU MAGEB2 (11727129_at) / Fold change /veh MAGEB2 (11727129_at) / RFU TMEM200A (11744735_a_at) / Fold change /veh TMEM200A (11744735_a_at) / RFU CCDC152 (11751479_a_at) / Fold change /veh CCDC152 (11751479_a_at) / RFU FAM211A (11726209_a_at) / Fold change /veh FAM211A (11726209_a_at) / RFU RGS16 (11746705_a_at) / Fold change /veh RGS16 (11746705_a_at) / RFU VCAN (11755009_s_at) / Fold change /veh VCAN (11755009_s_at) / RFU RHOB (11743442_s_at) / Fold change /veh RHOB (11743442_s_at) / RFU RGS16 (11720943_a_at) / Fold change /veh RGS16 (11720943_a_at) / RFU RGS16 (11720944_at) / Fold change /veh RGS16 (11720944_at) / RFU, VPS4B / Fold change vs veh, VPS4B / RFU, CREB1 / Fold change vs veh, CREB1 / RFU, DNAJC13 / Fold change vs veh, DNAJC13 / RFU, GNAQ / Fold change vs veh, GNAQ / RFU, CDK5R1 / Fold change vs veh, CDK5R1 / RFU, ZRANB3 / Fold change vs veh, ZRANB3 / RFU, CUL4A / Fold change vs veh, CUL4A / RFU, CCNY / Fold change vs veh, CCNY / RFU, UFL1 / Fold change vs veh, UFL1 / RFU, COG3 / Fold change vs veh, COG3 / RFU, DIAPH2 / Fold change vs veh, DIAPH2 / RFU, SKA2 / Fold change vs veh, SKA2 / RFU, AFF3 / Fold change vs veh, AFF3 / RFU, LMF1 / Fold change vs veh, LMF1 / RFU, IPO11 / Fold change vs veh, IPO11 / RFU, DFFB / Fold change vs veh, DFFB / RFU, FOXP1 / Fold change vs veh, FOXP1 / RFU, CARD8 / Fold change vs veh, CARD8 / RFU, STRN3 / Fold change vs veh, STRN3 / RFU, ADK / Fold change vs veh, ADK / RFU, RASSF2 / Fold change vs veh, RASSF2 / RFU, WIPF1 / Fold change vs veh, WIPF1 / RFU, LARP1B / Fold change vs veh, LARP1B / RFU, RASA1 / Fold change vs veh, RASA1 / RFU, RB1 / Fold change vs veh, RB1 / RFU, PPFIA1 / Fold change vs veh, PPFIA1 / RFU, MAT2A / Fold change vs veh, MAT2A / RFU, CCT5 / Fold change vs veh, CCT5 / RFU, WDR92 / Fold change vs veh, WDR92 / RFU, CUX1 / Fold change vs veh, CUX1 / RFU, TTC7A / Fold change vs veh, TTC7A / RFU, TMEM135 / Fold change vs veh, TMEM135 / RFU, DEPTOR / Fold change vs veh, DEPTOR / RFU, CPM / Fold change vs veh, CPM / RFU, DNAJB6 / Fold change vs veh, DNAJB6 / RFU, CACNA2D3 / Fold change vs veh, CACNA2D3 / RFU, DTX4 / Fold change vs veh, DTX4 / RFU, TFCP2 / Fold change vs veh, TFCP2 / RFU, GMCL1 /// GMCL1P1 / Fold change vs veh, GMCL1 /// GMCL1P1 / RFU, AEBP2 / Fold change vs veh, AEBP2 / RFU, SNHG1 /// SNORD22 /// SNORD25 /// SNORD26 /// SNORD27 /// SNORD28 /// SNORD29 /// SNORD31 / Fold change vs veh, SNHG1 /// SNORD22 /// SNORD25 /// SNORD26 /// SNORD27 /// SNORD28 /// SNORD29 /// SNORD31 / Fold change (Aza/veh), C12orf56 (ProbeSet 11735607_a_at) / Fold change (ACY-1035/veh), C12orf56 (ProbeSet 11735607_a_at) / Fold change (Aza/veh), FGFR1OP (ProbeSet 11751329_s_at) / Fold change (ACY-1035/veh), FGFR1OP (ProbeSet 11751329_s_at) / Fold change (Aza/veh), VPS36 (ProbeSet 11739960_a_at) / Fold change (ACY-1035/veh), VPS36 (ProbeSet 11739960_a_at) / RFU SYPL1 (11715823_x_at) / Fold change /veh SYPL1 (11715823_x_at) / RFU IGFBP7 (11715501_s_at) / Fold change /veh IGFBP7 (11715501_s_at) / RFU REEP3 (11722064_at) / Fold change /veh REEP3 (11722064_at) / RFU IGLL1 (11728026_x_at) / Fold change /veh IGLL1 (11728026_x_at): dose or concentration left out as unconfirmed
Conditions: MV-4-11 cells, 48 hours

SMILES: Nc1ccc(-c2cccs2)cc1NC(=O)c1ccc2c(c1)cc(C1CC1)n2CCN1CCOCC1 [ACY-1035]
- RFU PRF1 (11729649_at): 18.67 RFU
